The supplement of paper PMC11208160

Test: recombinant barcode read abundance after kanamycin selection (control-corrected) (log10(CPM+1)); higher = more efficient recombination; sequences stand for … in AGTGCAGAGAAAATCGGCCAGTTTTCTCTGCCTGCAGTCCGCATGCCGT…AGATTTATGCAGCGGACTGCCTTTCTCCCAAAGTGATAAACCGGACAGTATCATGGACCGGTTTTCCCGGTAATCCGTATTTGCAAGGTTGGTTTCACT; site = the 11-nt target
In short: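 A vector carrying a T7-inducible recombinase and the last 73 bp of the bridge RNA received, by Gibson cloning, oligos encoding a promoter, target, barcode and the first 104 bridge RNA bases under J23119. The pooled constructs entered E. coli together with a donor plasmid by electroporation. Selection used chloramphenicol/ampicillin/kanamycin with 0.1 mM IPTG, with chloramphenicol/ampicillin LB agar as the control, each in two replicates. Recombination efficiency is the averaged, control-corrected counts-per-million of barcodes at recombinant junctions, reported as log10(CPM+1).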
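Note: IS621 recombinase and bridge RNA in Escherichia coli cells.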

Row | Sequence | recombinant barcode read abundance (log10)
1 | CAAACTACTTGGGTTCTAACCTGTTGCCA (site CAAACTACTTG) | 0.0171
2 | CAAACTACTTGGGTTCTAACCTGTTGCCA (site TTGCGGCCTCT) | 0.078
3 | CAAAGAGCTTGGGTTCTAACCTGTTGCTG (site CAAAGAGCTCA) | 1.38
4 | CAAAGAGCTTGGGTTCTAACCTGTTGCTG (site GTCCAGCCTGT) | 0.0339
5 | CAAAGTCCTTGGGTTCTAACCTGTTGCAT (site CAAAGTCCTAA) | 0.191
6 | CAAAGTCCTTGGGTTCTAACCTGTTGCAT (site CAAAGTCCTAC) | 0.0225
7 | CAAAGTCCTTGGGTTCTAACCTGTTGCAT (site CAAAGTCCTAG) | 0.59
8 | CAAAGTCCTTGGGTTCTAACCTGTTGCAT (site CAAAGTCCTAT) | 1.46
9 | CAAAGTCCTTGGGTTCTAACCTGTTGCGT (site CAAAGTCCTAA) | 0.128
10 | CAAAGTCCTTGGGTTCTAACCTGTTGCGT (site CAAAGTCCTAC) | 2.24
11 | CAAAGTCCTTGGGTTCTAACCTGTTGCGT (site CAAAGTCCTAG) | 0.294
12 | CAAAGTCCTTGGGTTCTAACCTGTTGCGT (site CAAAGTCCTAT) | 0.932
13 | CAAATTACTTGGGTTCTAACCTGTTGCCT (site CAAATTACTAG) | 0.0574
14 | CAAATTACTTGGGTTCTAACCTGTTGCCT (site CAGATGACTAG) | 0.161
15 | CAACCTTCTTGGGTTCTAACCTGTTGCCT (site CAACCTTCTAG) | 0.7
16 | CAACCTTCTTGGGTTCTAACCTGTTGCCT (site CTACCTTCTAG) | 0.025
17 | CAAGACCCTTGGGTTCTAACCTGTTGCCT (site CAAGACCCTAG) | 2.5
18 | CAAGACCCTTGGGTTCTAACCTGTTGCCT (site CACGACCCTAG) | 0.763

Row | Sequence | recombinant barcode read abundance (log10)
19 | CAAGACCCTTGGGTTCTAACCTGTTGCCT (site CAGGACCCTAG) | 1.05
20 | CAAGACCCTTGGGTTCTAACCTGTTGCCT (site CATGACCCTAG) | 1.17
21 | CAAGAGTCTTGGGTTCTAACCTGTTGCTT (site CAAGAGTCTAA) | 2.26
22 | CAAGAGTCTTGGGTTCTAACCTGTTGCTT (site CGAGAGACTAA) | 0.178
23 | CAAGGGACTTGGGTTCTAACCTGTTGCGG (site CAAGGGACTCC) | 2.33
24 | CAAGGGACTTGGGTTCTAACCTGTTGCGG (site CAGGGGACTCG) | 0.0306
25 | CAAGTCCCTTGGGTTCTAACCTGTTGCCT (site AAAGTCCCTAG) | 0.0441
26 | CAAGTCCCTTGGGTTCTAACCTGTTGCCT (site CAAGTCCCTAG) | 1.9
27 | CAAGTCCCTTGGGTTCTAACCTGTTGCCT (site GAAGTCCCTAG) | 0.207
28 | CAAGTCCCTTGGGTTCTAACCTGTTGCCT (site TAAGTCCCTAG) | 0.211
29 | CAAGTCGCTTGGGTTCTAACCTGTTGCCT (site CAAGTAGCTAG) | 0.219
30 | CAAGTCGCTTGGGTTCTAACCTGTTGCCT (site CAAGTCGCTAG) | 1.29
31 | CAAGTCGCTTGGGTTCTAACCTGTTGCCT (site CAAGTGGCTAG) | 0.458
32 | CAAGTCGCTTGGGTTCTAACCTGTTGCCT (site CAAGTTGCTAG) | 0.0227
33 | CAATCCTCTTGGGTTCTAACCTGTTGCCT (site AAATCCTCTAG) | 0.0785
34 | CAATCCTCTTGGGTTCTAACCTGTTGCCT (site CAATCCTCTAG) | 1.2
35 | CAATCCTCTTGGGTTCTAACCTGTTGCCT (site GAATCCTCTAG) | 0.0242
36 | CAATCCTCTTGGGTTCTAACCTGTTGCCT (site TAATCCTCTAG) | 0.127
